Measured values from article PMC8419995, “In vitro and in vivo efficacy of thiacloprid against Echinococcus multilocularis” (Parasites & Vectors, 2021).

How the values were obtained:
[1] = system: E. multilocularis metacestodes; test: PGI assay (phosphoglucose isomerase release) on metacestode vesicles; type: cell-based, Echinococcus multilocularis
Procedure: The efficacy of thiacloprid against the E. multilocularis metacestode was evaluated by applying a phosphoglucose isomerase (PGI) assay that measures the release of the enzyme phosphoglucose isomerase upon physical impairment of metacestodes. In brief, medium without phenol red (DMEM, 1% penicillin/streptomycin sulfate, 2 mM L-glutamine) was added to the same volume of vesicles and distributed to 48-well (12–15 per vesicles) plates. Subsequently, metacestodes were incubated for 5 days with different concentrations (0, 0.06, 1.2, 2.5, 5, 10, 20, 40, 80 and 160 μM) of thiacloprid or praziquantel (PZQ), after which PGI release was quantified exactly as described in Stadelmann et al.. Triton X-100 (0.1% in PBS) was applied as a positive control (maximal release of vesicle fluid). Each condition was tested in biological triplicate. After 5 days of incubation, 200 μl medium supernatant was collected from each well and stored at − 20 °C until further measurements were performed. PGI measurements were performed as described earlier, except that an Infinite M200 PRO reader (Tecan, Männedorf, Switzerland) was used to measure the increase in absorbance at 340 nm. PGI activity was calculated using the EC50 calculator (https://www.aatbio.com/tools/ec50-calculator) from the linear regression of the enzyme reaction over time and presented as a percentage relative to the values obtained by treatment of vesicles with 0.1% Triton X-100.

[2] = Toxicity of thiacloprid in vivo (serum biochemistry, blood cells, histopathology); conditions: normal BALB/c mice, 6 weeks; for Alanine aminotransferase / Albumin / Alkaline phosphatase / Aspartate aminotransferase / Blood urea nitrogen / Creatinine / Direct bilirubin / Globulin / Indirect bilirubin / Total bilirubin / Total protein: serum; for Hemoglobin / PLT / RBC / WBC: whole blood
Procedure: Based on the previous thiacloprid dose concentration, we selected 15 mg/kg and 30 mg/kg thiacloprid concentrations to evaluate the toxicity in vivo [35]. The toxicity of thiacloprid was assessed in normal BALB/c mice. Normal mice were randomly divided into three groups and received the following treatments (6 animals per group): The control group was not administered any drug; the Thia15 group and Thia30 group received thiacloprid orally (15 mg/kg/day and 30 mg/kg/day). After 6 weeks of treatment, blood samples were collected from the orbital sinus of mice under anesthesia before euthanasia, which were preserved in EDTA-K2 anticoagulant tubes for white blood cell (WBC), hemoglobin (Hb) and platelet (PLT) analysis. For assessing biochemical indicators, blood samples were incubated in anticoagulant-free tubes at 37 °C for 1 h, followed by 3500 rpm centrifugation for 10 min. The isolated serum samples were used to detect relative levels of alanine aminotransferase (ALT), aspartate aminotransferase (AST), total bilirubin (TBIL), direct bilirubin (DBIL), indirect bilirubin (IBIL), total protein (TP), albumin (ALB), alkaline phosphatase (ALP), creatinine (CREA) and blood urea nitrogen (BUN). Subsequently, mice were sacrificed for harvesting the liver and kidneys, which were fixed in 4% paraformaldehyde, prepared for hematoxylin–eosin (HE) staining and observed under a Zeiss Vert.A1 microscope.
(§1) Tissues from experimental animals were washed in PBS and fixed in 4% paraformaldehyde at room temperature for […]. On the next day, they were dehydrated, embedded, and sliced into 5-μm sections. After dewaxing and dehydrating, sections were stained with hematoxylin for 2–5 min, and re-stained with eosin for 15 s. They were sealed with neutral gum and observed under a BX51 microscope (Olympus, Tokyo, Japan).

[3] = system: E. multilocularis metacestodes; test: In vivo treatment of mice experimentally infected with E. multilocularis metacestodes; design: species or system Echinococcus multilocularis; conditions: for Wet weight of the metacestodes: infected BALB/c mice, untreated 6.49 ± 1.18 g
Procedure: (§2) In vitro-grown metacestode vesicles were pressed through a 500 µm mesh and washed three times with sterile PBS. The parasite tissue was then taken up in an equal volume of sterile PBS. Each mouse was intraperitoneally injected with 200 μl suspension. Seven mice were injected with 200 μl PBS as the control group. Twenty-eight infected mice were randomly distributed into four groups (7 mice/group): the untreated group was not administered any drug; the ABZ group was treated with ABZ orally (100 mg/kg/day); and the Thia15 group and Thia30 group received thiacloprid orally (15 mg/kg/day and 30 mg/kg/day). Treatments of mice started 2 weeks post-infection, and treatments were administered daily for 6 weeks. After 6 weeks of treatment, whole blood via the orbital sinus was collected from mice and the animals were euthanized by CO2. Blood samples were incubated at 37 °C for 1 h and centrifuged at 3500 rpm for 10 min at 4 °C. The serum was harvested and stored at –20 °C for IL-2, IL-4, IL-10 and IgE detection. All metacestode tissues were collected, and the total wet weight of metacestodes per mice was determined. Furthermore, the content of cytokines in microcyst fluid was detected by enzyme-linked immunosorbent assay (ELISA). Several metacestode tissue specimens were processed for transmission electron microscopy (TEM) and histopathological experiments.
as §1
A Periodic Acid Schiff Stain Kit (Solarbio, Beijing, China) was used to show the PAS-positive laminated layer characteristic of E. multilocularis metacestodes. The section (5 μm) was dewaxed in xylene and rehydrated in 100%, 95%, 80%, and 75% alcohol baths. Staining was then carried out according to the kit instructions.

[4] = system: T lymphocyte subsets in metacestodes and spleen; test: T lymphocyte subset analysis and spleen index in infected mice; type: in vivo; conditions: infected BALB/c mice; 6 weeks oral treatment; flow cytometry
Procedure: as §2, with “After 6 weeks of treatment, whole blood via the orbital sinus was collected from mice and the animals were euthanized by CO2. Blood samples were incubated at 37 °C for 1 h and centrifuged at 3500 rpm for 10 min at 4 °C. The serum was harvested and stored at –20 °C for IL-2, IL-4, IL-10 and IgE detection.” left out, “Several metacestode tissue specimens were processed for transmission electron microscopy (TEM) and histopathological experiments.” left out
The spleens of mice were removed and then weighed to calculate the spleen index. […] The lymphocytes were incubated with FITC-conjugated anti-CD3 (BioLegend, San Diego, CA, USA), PE-conjugated anti-CD4 (BioLegend), and APC-conjugated anti-CD8 (BioLegend) antibodies, and then analyzed by flow cytometry using a NovoCyte flow cytometer (ACEA/Agilent, Santa Clara, CA, USA).

N#C/N=C1\SCCN1Cc1ccc(Cl)nc1 [thiacloprid]
Activity in PGI assay screening ([1]; 20 μM, 5 days and 12 days, active if exceeding 20% relative PGI release): showed activity | EC50 ([1]; Echinococcus multilocularis, 120 h, read-out: EC50 against E. multilocularis metacestode by the PGI assay): 4.54 ± 1.1 µM | Alanine aminotransferase ([2]; 15 mg/kg/day orally): 66.00 ± 5.33 U/L | Albumin ([2]; 15 mg/kg/day orally): 28.95 ± 2.35 g/L | Alkaline phosphatase ([2]; 15 mg/kg/day orally): 57.67 ± 5.43 U/L | Aspartate aminotransferase ([2]; 15 mg/kg/day orally): 164.70 ± 36.71 U/L | Blood urea nitrogen ([2]; 15 mg/kg/day orally): 7.23 ± 1.87 mmol/L | Creatinine ([2]; 15 mg/kg/day orally): 16.08 ± 1.87 μM/L | Direct bilirubin ([2]; 15 mg/kg/day orally): 0.13 ± 0.05 μM/L | Globulin ([2]; 15 mg/kg/day orally): 36.67 ± 4.71 g/L | Indirect bilirubin ([2]; 15 mg/kg/day orally): 0.44 ± 0.17 μM/L | Total bilirubin ([2]; 15 mg/kg/day orally): 0.60 ± 0.10 μM/L | Total protein ([2]; 15 mg/kg/day orally): 65.90 ± 4.76 g/L | Hemoglobin ([2]; 15 mg/kg/day orally): 203.00 ± 11.15 g/L | PLT ([2]; 15 mg/kg/day orally): 613.70 ± 145.00 10^9/L | RBC ([2]; 15 mg/kg/day orally): 11.39 ± 1.48 10^12/L | WBC ([2]; 15 mg/kg/day orally): 11.69 ± 1.30 10^9/L | Alanine aminotransferase ([2]; 30 mg/kg/day orally): 67.50 ± 5.01 U/L | Albumin ([2]; 30 mg/kg/day orally): 29.72 ± 1.49 g/L | Alkaline phosphatase ([2]; 30 mg/kg/day orally): 58.50 ± 7.82 U/L | Aspartate aminotransferase ([2]; 30 mg/kg/day orally): 180.50 ± 45.71 U/L | Blood urea nitrogen ([2]; 30 mg/kg/day orally): 7.15 ± 0.47 mmol/L | Creatinine ([2]; 30 mg/kg/day orally): 15.18 ± 2.44 μM/L | Direct bilirubin ([2]; 30 mg/kg/day orally): 0.19 ± 0.16 μM/L | Globulin ([2]; 30 mg/kg/day orally): 37.77 ± 4.81 g/L | Indirect bilirubin ([2]; 30 mg/kg/day orally): 0.42 ± 0.19 μM/L | Total bilirubin ([2]; 30 mg/kg/day orally): 0.59 ± 0.16 μM/L | Total protein ([2]; 30 mg/kg/day orally): 65.82 ± 4.39 g/L | Hemoglobin ([2]; 30 mg/kg/day orally): 206.0 ± 9.93 g/L | PLT ([2]; 30 mg/kg/day orally): 670.80 ± 150.20 10^9/L | RBC ([2]; 30 mg/kg/day orally): 9.58 ± 0.82 10^12/L | WBC ([2]; 30 mg/kg/day orally): 12.72 ± 1.75 10^9/L | Histopathological examination of liver and kidneys (HE staining) ([2]; 15 and 30 mg/kg/day orally): did not show obvious histopathological changes or injury | PAS staining of laminated layer of metacestodes from treated mice ([3]; 6 weeks oral treatment): only a few laminated layers were observed | HE staining of metacestodes from treated mice ([3]; 6 weeks oral treatment, thiacloprid 15 or 30 mg/kg/day, ABZ 100 mg/kg/day): Considerable vacuoles | Wet weight of the metacestodes ([3]; thiacloprid 15 mg/kg/day orally, 6 weeks (Thia15 group)): 1.63 ± 0.62 g | Wet weight of the metacestodes ([3]; thiacloprid 30 mg/kg/day orally, 6 weeks (Thia30 group)): 1.63 ± 0.61 g | CD4+ T lymphocytes in the metacestodes and spleen compared with the untreated group [4]: increased | CD8+ T lymphocytes in the metacestodes and spleen compared with the untreated group [4]: decreased
